How the values were obtained:
[1] = tested on: P. aeruginosa KM 97-5; test: Antibacterial activity test (MIC); type: cell-based; details: Mueller-Hinton Broth, 37° C., 20 to 24 hours
Method in brief: (§1)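 Broth dilution MIC per the Japanese Society of Chemotherapy standard method in Mueller-Hinton Broth. Strains were grown statically at 37° C for 16 to 20 hours and diluted in sterile saline to 10^5/ml. Compounds were dissolved in methanol and serially diluted twofold in medium, giving 100 μg/ml and 2^n-fold (n=−10 to 1).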

[2] = tested on: E. coli NIHJ JC-2; test: Antibacterial activity test (MIC); type: cell-based; details: Mueller-Hinton Broth, 37° C., 20 to 24 hours
Method in brief: as §1

[3] = tested on: P. aeruginosa No. 12; test: Antibacterial activity test (MIC); type: cell-based; details: Mueller-Hinton Broth, 37° C., 20 to 24 hours
Method in brief: as §1

[4] = tested on: P. aeruginosa PAO-1; test: Antibacterial activity test (MIC); type: cell-based; details: Mueller-Hinton Broth, 37° C., 20 to 24 hours
Method in brief: as §1

[5] = tested on: S. aureus 209PJC; test: Antibacterial activity test (MIC); type: cell-based; details: Mueller-Hinton Broth, 37° C., 20 to 24 hours
Method in brief: as §1

[6] = tested on: P. aeruginosa KM 97-5; test: Bactericidal activity test (MBC, phenol coefficient measuring method); type: cell-based
Method in brief: (§2)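 Read-out is growth versus no growth after subculture (heart infusion bouillon, 37° C, 40–48 h) of samples taken 1, 3 and 5 min into exposure of 1×10^7/ml bacteria to halved compound dilutions. Triplicate tests; MBC in μg/ml.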

[7] = tested on: E. coli NIHJ JC-2; test: as above; type: cell-based
Method in brief: as §2

[8] = tested on: P. aeruginosa No. 12; test: as above; type: cell-based
Method in brief: as §2

[9] = tested on: P. aeruginosa PAO-1; test: as above; type: cell-based
Method in brief: as §2

[10] = tested on: S. aureus 209PJC; test: as above; type: cell-based
Method in brief: as §2

[11] = tested on: VRE 49; test: Antibacterial activity test (MIC); type: cell-based, vancomycin-resistant enterococci; details: Mueller-Hinton Broth, 37° C., 20 to 24 hours
Experimental: Regarding compounds obtained in respective Working Examples, in order to investigate antibacterial activity, minimal inhibitory concentration (MIC) was determined according to a standard method of Japanese Society of Chemotherapy.
As a test bacterium, nine kinds of S. aureus 209PJC, MRSA 97-115, MRSA KM 97-53, MRSA KM97-108, VRE 49, E. coli NIHJ JC-2, P. aeruginosa PAO-1, P. aeruginosa No. 12, P. aeruginosa KM97-5 were used and, as a medium, Mueller-Hinton Broth (DIFCO) was used. One platinum loop of a test bacterium was inoculated into 20 ml of a medium, and static culture was carried out at 37° C. for 16 to 20 hours, and then each bacterium species was diluted with a sterilized physiological saline to 10^5/ml, which was used as a test bacterium solution.
Then, each compound was dissolved in methanol, subjected to ½ stepwise dilution with a medium to prepare a medium for measuring sensitivity, and each 2 ml was dispensed into a test tube. A compound concentration in a medium was adjusted to 100 μg/ml and its 2^n-fold (n=−10 to 1).
Numerical values in Tables represent MIC expressed in μg/ml unit.

[12] = tested on: MRSA KM 97-53; test: Antibacterial activity test (MIC); type: cell-based, methicillin-resistant Staphylococcus aureus; details: Mueller-Hinton Broth, 37° C., 20 to 24 hours
Method in brief: as §1

[13] = tested on: MRSA 97-115; test: Antibacterial activity test (MIC); type: cell-based, methicillin-resistant Staphylococcus aureus; details: Mueller-Hinton Broth, 37° C., 20 to 24 hours
Method in brief: as §1

[14] = tested on: MRSA KM 97-108; test: Antibacterial activity test (MIC); type: cell-based, methicillin-resistant Staphylococcus aureus; details: Mueller-Hinton Broth, 37° C., 20 to 24 hours
Method in brief: as §1

[15] = tested on: VRE 49; test: Bactericidal activity test (MBC, phenol coefficient measuring method); type: cell-based, vancomycin-resistant enterococci
Experimental: As a test bacterium, the same bacteria species as those of the antibacterial activity test were used; as a medium to be used, a SCD medium (manufactured by Eiken Chemical Co., Ltd.) was used for pre-culture medium; and a heart infusion bouillon medium (manufactured by Eiken Chemical Co., Ltd.) was used as a medium for growing a live bacterium in a test solution after bactericidal treatment. One platinum loop of a test bacterium was inoculated into 20 ml of a medium, and static culture was carried out at 37° C. for 18 to 20 hours, and the cells were adjusted with a sterilized physiological saline to 1×10^7/ml, which was used as a test bacterium solution.
Then, a solution of each compound in methanol was subjected to ½ stepwise dilution with sterilized water, each 5 ml was dispensed into a test tube, 0.5 ml of the previously prepared test bacterium solution was added thereto, and the mixture was blended well. After 1 minute, 3 minutes and 5 minutes has passed, 5 μl of the test solution was collected and inoculated into 2 ml of a heart infusion bouillon medium, this was cultured at 37° C. for 40 to 48 hours, and the presence or absence of growth of a bacterium was determined. A test was performed three times, a minimum concentration at which growth of a bacterium was not recognized two or more times was adopted as a minimal bactericidal concentration (MBC value).
Numerical values in Tables represent MBC expressed in μg/ml unit.

[16] = tested on: MRSA KM 97-53; test: as above; type: cell-based, methicillin-resistant Staphylococcus aureus
Method in brief: as §2

[17] = tested on: MRSA 97-115; test: as above; type: cell-based, methicillin-resistant Staphylococcus aureus
Method in brief: as §2

[18] = tested on: MRSA KM 97-108; test: as above; type: cell-based, methicillin-resistant Staphylococcus aureus
Method in brief: as §2

- minimal inhibitory concentration (MIC) [1]: 25 µg/mL
- minimal inhibitory concentration (MIC) [2]: 12.5 µg/mL
- minimal inhibitory concentration (MIC) [3]: 25 µg/mL
- minimal inhibitory concentration (MIC) [4]: 12.5 µg/mL
- minimal inhibitory concentration (MIC) [5]: 0.8 µg/mL
- minimal inhibitory concentration (MIC) [11]: 0.8 µg/mL
- minimal inhibitory concentration (MIC) [12]: 0.8 µg/mL
- minimal inhibitory concentration (MIC) [13]: 1.6 µg/mL
- minimal inhibitory concentration (MIC) [14]: 1.6 µg/mL
Structure (SMILES): CC(=O)O.CCCCCCCCCNC1=NC(C)(C)N=C(NCc2ccccc2)N1 [compound 48]
- minimal bactericidal concentration (MBC) ([6]; 1 min): 3.1 µg/mL
- minimal bactericidal concentration (MBC) ([6]; 3 min): 3.1 µg/mL
- minimal bactericidal concentration (MBC) ([6]; 5 min): 3.1 µg/mL
- minimal bactericidal concentration (MBC) ([7]; 1 min): 6.3 µg/mL
- minimal bactericidal concentration (MBC) ([7]; 3 min): 6.3 µg/mL
- minimal bactericidal concentration (MBC) ([7]; 5 min): 3.1 µg/mL
- minimal bactericidal concentration (MBC) ([8]; 1 min): 25 µg/mL
- minimal bactericidal concentration (MBC) ([8]; 3 min): 12.5 µg/mL
- minimal bactericidal concentration (MBC) ([8]; 5 min): 12.5 µg/mL
- minimal bactericidal concentration (MBC) ([9]; 1 min): 6.3 µg/mL
- minimal bactericidal concentration (MBC) ([9]; 3 min): 3.1 µg/mL
- minimal bactericidal concentration (MBC) ([9]; 5 min): 3.1 µg/mL
- minimal bactericidal concentration (MBC) ([10]; 1 min): 12.5 µg/mL
- minimal bactericidal concentration (MBC) ([10]; 3 min): 6.3 µg/mL
- minimal bactericidal concentration (MBC) ([10]; 5 min): 6.3 µg/mL
- minimal bactericidal concentration (MBC) ([15]; 1 min): 25 µg/mL
- minimal bactericidal concentration (MBC) ([15]; 3 min): 12.5 µg/mL
- minimal bactericidal concentration (MBC) ([15]; 5 min): 12.5 µg/mL
- minimal bactericidal concentration (MBC) ([16]; 1 min): 50 µg/mL
- minimal bactericidal concentration (MBC) ([16]; 3 min): 25 µg/mL
- minimal bactericidal concentration (MBC) ([16]; 5 min): 25 µg/mL
- minimal bactericidal concentration (MBC) ([17]; 1 min): 12.5 µg/mL
- minimal bactericidal concentration (MBC) ([17]; 3 min): 6.3 µg/mL
- minimal bactericidal concentration (MBC) ([17]; 5 min): 6.3 µg/mL
- minimal bactericidal concentration (MBC) ([18]; 1 min): 50 µg/mL
- minimal bactericidal concentration (MBC) ([18]; 3 min): 50 µg/mL
- minimal bactericidal concentration (MBC) ([18]; 5 min): 25 µg/mL
